Measurements from the NIST ThermoML archive (doi:10.1016/j.tca.2016.09.007).
Numbers after ± are expanded uncertainties.

Conditions: Crystal; DTA

O=C1OCCO1 [ethylene carbonate]
Normal melting temperature: 38.00 ± 1 °C
